Here are results for 4 molecules from US8759382B2, “Propargyl-trifluoromethoxy-aminobenzothiazole derivatives, their preparation and use” (Teva Pharmaceutical Industries Ltd., priority 2010, dated 2014).

The experiment has as its system EAE induced in the CSJL/FI strain of mice. Put plainly: EAE model in CSJL/FI mice (MSCH/CFA-induced), clinical scoring. The class given is in vivo. The method, then:
EAE induced in the CSJL/FI strain of mice was selected to test the compounds mentioned above, as it is an established EAE model to test the efficacy of candidate molecules for MS treatment.
Disease was induced in all mice by the injection of the encephalitogenic emulsion (MSCH/CFA). Treatment was started from day 1 of the study or at disease onset and was administered every day, orally (BID), from onset of the study.
Healthy, nulliparous, non-pregnant female mice of the CSJL/FI strain obtained from Harlan Animal Breeding Center, Jerusalem, Israel were used in the study. The animals weighed about 17-20 g on arrival, and were approximately 9 weeks of age at initiation of the study. Overtly healthy animals were assigned to study groups arbitrarily before treatment commenced.
The mice were allocated to the following 8 groups of 10 mice each:
Treatments in all groups were administered orally.
The emulsion was made from equal parts of oil (4 mL CFA containing 1.0 mg/ml MT) and liquid portions ([…] MSCH/2.5 mL PBS) in two syringes connected to each other with a Leur lock. The concentration of MSCH in emulsion is 40 mg/mL.
The emulsion was transferred to an insulin syringe before injection. 0.05 ml was injected into the left foot-pad of each mouse.
104 μL Pertussis toxin (200 μg/ml) was added to 25.87 ml PBS to yield 800 ng/ml. The pertussis toxin was administered intravenously on the day of the encephalitogen injection and 48 hours later (160.0 ng/0.2 ml/mouse×2=320 ng/mouse).
Laquinimod was diluted in DDW water to yield 0.1 mg/ml. The solution was stored in an amber colored bottle at 2 to 8° C. The 0.1 mg/ml laquinimod was administered orally, once, daily from the initiation of the study until study termination (Day 23).
Compounds B and C were dissolved in 5% Dextrose to concentrations of 2.5, 5.0 and 10 mg/ml for dose levels of 25, 50 and 100 mg/kg respectively. Test samples were freshly prepared. The 2.5, 5.0 and 10 mg/ml concentrations of Compounds B and C were administered orally, twice daily (BID) from initiation of study until study termination (Day 23) to groups
Scoring of EAE clinical signs were initiated from the 10th day post-EAE induction and were continued daily. The clinical signs were recorded on observation cards according to a grading system described in the table below.
All mice having scores of 1 and above were considered sick.
Animals with a score of 4 for more than two days were given a score of 5 and sacrificed for humane reasons. For calculation purposes, the score (5) of animals that are sacrificed or died will be carried forward (LOCF).
The number of sick animals in each group was summed.
The incidence of disease was calculated as
The percent inhibition according to incidence was calculated as: […]
The number of dead or moribund animals in each group was summed.
The mortality of disease was calculated as
The percent inhibition according to mortality was calculated as
The mean delay in onset of disease expressed in days is calculated by subtracting the mean onset of disease in control group from test group.
The mean maximal score (MMS) of each group was calculated as
The percent inhibition according to MMS was calculated as
The daily scores of each mouse in the test group was summed and the individual mean daily score (IMS) was calculated as
The mean group score (GMS) was calculated as
The percent inhibition was calculated as
This example was performed in the same manner as example 3 with the following groups:
Compound A was prepared for administration by mixing in 0.5% methyl cellulose (0.5% MC) to concentrations of 2.5, 5.0 and 10 mg/ml for dose levels of 25, 50 and 100 mg/kg respectively. The samples were vortexed and sonicated until a clear solution was obtained.
The 2.5, 5.0 and 10 mg/ml concentrations of Compound A were administered orally, twice daily (BID) from initiation of study until study termination (Day 23) at a volume dose of 0.2 ml/mouse.
Compound B was prepared for administration as in Example 3. […]

[1] abbreviates: Example 3, all dose levels (25, 50, 100 mg/kg BID oral) in 5% dextrose.
Setting [2] is: Example 3, 1 mg/kg QD oral, Day 0 to 22, percent inhibition vs 5% dextrose negative control.

Molecules are shown by their SMILES.

Regarding `C#CCN1CCN(c2nc3ccc(OC(F)(F)F)cc3s2)CC1` [Compound A, 2-(4-(prop-2-ynyl)piperazin-1-yl)-6-(trifluoromethoxy)benzo[d]thiazole], the “protection from disease onset and severity (in words)” value (Example 4, 25, 50 and 100 mg/kg BID oral in 0.5% methyl cellulose, all doses tested) is “almost complete protection”. The “efficacy compared with Compound B” value (Example 4, Compound A 25-100 mg/kg BID vs Compound B 15-25 mg/kg BID, oral) was “better than Compound B”.

As to `C#CCNCc1nc2ccc(OC(F)(F)F)cc2s1` [Compound B, N-((6-(trifluoromethoxy)benzo[d]thiazol-2-yl)methyl)prop-2-yn-1-amine], the mortality entry (Example 3, 25 mg/kg BID oral) is “no mortality”. For the same molecule, the “activity based on GMS (EAE inhibition)” value reads like this: (Example 3, 25 mg/kg BID oral in 5% dextrose, Day 0 to 22) 55.9%; (Example 3, 100 mg/kg BID oral in 5% dextrose, Day 0 to 22) 56.4%. Besides, the “activity in EAE (in words)” value runs as follows: under setting [1], “some activity”; (Example 4, 15 and 25 mg/kg BID oral, Day 0 to 22) “moderate activity”.

For the molecule `CCN(C(=O)c1c(O)c2c(Cl)cccc2n(C)c1=O)c1ccccc1` [laquinimod, reference compound], under setting [2], the “activity according to GMS (group mean score)” value is on record as 96.7%, the “activity according to MMS (mean maximal score)” value came out at 93.5% and the “activity according to incidence” value stood at 80%.

Consider `C#CCN(C)Cc1nc2ccc(OC(F)(F)F)cc2s1` [Compound C, N-methyl-N-((6-(trifluoromethoxy)benzo[d]thiazol-2-yl)methyl)prop-2-yn-1-amine], for which the “activity in EAE (in words)” value under setting [1] is “some activity”.
